# Assay results reported in US8697662B2, “Methods for treating Kaposi sarcoma” (PTC Therapeutics, Inc., priority 2009, dated 2014).
# Tests used:
# [1] = tested on: hypoxia-inducible endogenous VEGF expression; assay: Hypoxia-inducible endogenous VEGF expression ELISA in HeLa cells, dose-response EC50 (Table 3); assay type: cell-based; conditions: Homo sapiens, hypoxic conditions (1% O2), VEGF ELISA of conditioned media
# Method: The ability of the Compounds to modulate hypoxia-inducible endogenous VEGF expression may be analyzed as follows. VEGF protein levels may be monitored by an ELISA assay (R&D Systems). Briefly, HeLa cells may be cultured for 24-48 hours under hypoxic conditions (1% O2, 5% CO2, balanced with nitrogen) in the presence or absence of a Compound. The conditioned media may then be assayed by ELISA, and the concentration of VEGF calculated from the standard ELISA curve of each assay.
# A dose-response analysis may be performed using the ELISA assay and conditions described above. The conditions for the dose-response ELISA are analogous to those described above. A series of, e.g., seven different concentrations may be analyzed. In parallel, a dose-response cytotoxicity assay may be performed using Cell Titer Glo (Promega) under the same conditions as the ELISA to ensure that the inhibition of VEGF expression was not due to the cytotoxicity.
# [2] = tested on: HT1080 xenografts; assay: Time course of tumor size and plasma human VEGF in HT1080 xenografts; assay type: in vivo, athymic nude mice; conditions: by Day 1
# Method: (§1) Experimental Design. HT1080 cells (5×10^6 cells/mouse) were implanted subcutaneously in male athymic nude mice.
# Tumor size was measured by calipers immediately pre-treatment and at the time of sacrifice on Day 1, 2, or 3 (5 mice per group per day). At sacrifice, the plasma was collected for assay of pathologic human VEGF concentration using an ELISA that recognizes human VEGF121 and VEGF165 (as described in Section 9.1.1.1).
# [3] = tested on: HT1080 xenografts; assay: BrdU labeling of tumor cells from HT1080 xenografts in vivo; parameters: species or system athymic nude mice; conditions: HT1080 xenografts, 1, 2, or 3 days of treatment
# Method: as §1
# The mice were sacrificed 3 hours later, and the tumors collected. A single cell suspension was prepared from the tumor cells. The cells were permeabilized and an antibody to BrdU was used to stain cells that had entered S phase during the labeling period. The proportion of cells actively synthesizing DNA was determined by cell sorting.
# [4] = tested on: KS-like angioproliferative lesions; conditions: nude mice, doses similar to AIDS patients; cited from earlier work
# [5] = tested on: HT1080 cells; assay: Cell cycle analysis by propidium iodide flow cytometry in HT1080 cells (S-phase accumulation, Table 24); assay type: cell-based, human; conditions: same tumor cells; data not shown
# Method: Experimental Design. […] After treatment, cells were trypsinized, and stained with propidium iodide (PI) dye to measure DNA content of individual cells by flow cytometry. Output comprised histograms showing relative DNA content in 10,000 cells.
# While compounds which cause greater than 20% of the cells to accumulate in S-phase at 100 nM are considered active, a larger percentage of cells may be accumulated in S-phase at lower doses depending on the Compound, as shown in FIG. 12 for example.
# [6] = tested on: primary endothelial cells; conditions: in-vitro; cited from earlier work
compound,measurement,setting,value
NC(=O)COc1ccc(C2c3[nH]c4ccc(Cl)cc4c3CCN2C(=O)Oc2ccc(Cl)cc2)cc1 (stereo not drawn) [Compound 1161],EC50,[1],< 8 nM
CC(CO)(CO)COc1ccc([C@H]2c3[nH]c4ccc(Cl)cc4c3CCN2C(=O)Oc2ccc(F)cc2)cc1 [Compound 1335],EC50,[1]; 24-48 hours,8 to 40 nM
"COc1cccc2c1C(=O)c1c(O)c3c(c(O)c1C2=O)C[C@@](O)(C(=O)CO)C[C@@H]3O[C@H]1C[C@H](N)[C@H](O)[C@H](C)O1 [doxorubicin, reference compound]",pathologic plasma human VEGF levels (in words),[2],numerically lower than in control animals
same,BrdU staining of tumor cells (fraction in S phase) (in words),[3],decreased the percentage of tumor cells staining with BrdU
CC(C)(C)NC(=O)[C@@H]1CN(Cc2cccnc2)CCN1C[C@@H](O)C[C@@H](Cc1ccccc1)C(=O)N[C@H]1c2ccccc2C[C@H]1O [indinavir],macroscopic KS-like angioproliferative lesions (in words),[4],reduction in the number and size
"NC(Cn1ccc(=O)c(O)c1)C(=O)O (stereo not drawn) [mimosine, reference compound]",effect on cell cycle (and VEGF production) (in words),[5],does not delay or prolong the cell cycle or reduce VEGF production
CC(C)c1nc(CN(C)C(=O)N[C@H](C(=O)N[C@@H](Cc2ccccc2)C[C@H](O)[C@H](Cc2ccccc2)NC(=O)OCc2cncs2)C(C)C)cs1 [ritonavir],activation and proliferation of primary endothelial cells (in words),[6],inhibition of activation and proliferation
same,"production of TNF-α, IL-6, IL-8 and VEGF (in words)",[6],decreased production
CC(C)(C)NC(=O)[C@@H]1C[C@@H]2CCCC[C@@H]2CN1C[C@@H](O)[C@H](Cc1ccccc1)NC(=O)[C@H](CC(N)=O)NC(=O)c1ccc2ccccc2n1 [saquinavir],macroscopic KS-like angioproliferative lesions (in words),[4],reduction in the number and size
